From ChEMBL document CHEMBL3351686, “Facile and diastereoselective synthesis of 3,2'-spiropyrrolidine-oxindoles derivatives, their molecular docking and antiproliferative activities” (2015)
≈ marks a conversion by molar mass, not a printed value. One block for each compound: values may come before it.

What was measured:
Klebsiella pneumoniae [1] = experiment: Antibacterial activity against Klebsiella pneumoniae MTCC 109 assessed as inhibition of visual growth after 24 hrs; assay type: functional; conditions: MTCC 109, 24 h
Klebsiella pneumoniae [2] = experiment: Antibacterial activity against Klebsiella pneumoniae MTCC 109 assessed as zone of inhibition at 1 mg/disc after 24 hrs by disc diffusion method; assay type: functional
Proteus vulgaris [3] = experiment: Antibacterial activity against Proteus vulgaris MTCC 1771 assessed as zone of inhibition at 1 mg/disc after 24 hrs by disc diffusion method; assay type: functional
Malassezia pachydermatis [4] = experiment: Antifungal activity against Malassezia pachydermatis assessed as zone of inhibition at 1 mg/disc after 48 hrs by disc diffusion method; assay type: functional
Proteus vulgaris [5] = experiment: Antibacterial activity against Proteus vulgaris MTCC 1771 assessed as inhibition of visual growth after 24 hrs; assay type: functional; conditions: MTCC 1771, 24 h
Micrococcus luteus [6] = experiment: Antibacterial activity against Micrococcus luteus MTCC 106 assessed as zone of inhibition at 1 mg/disc after 24 hrs by disc diffusion method; assay type: functional
Klebsiella aerogenes [7] = experiment: Antibacterial activity against Enterobacter aerogenes MTCC 111 assessed as inhibition of visual growth after 24 hrs; assay type: functional; conditions: MTCC 111, 24 h
Klebsiella aerogenes [8] = experiment: Antibacterial activity against Enterobacter aerogenes MTCC 111 assessed as zone of inhibition at 1 mg/disc after 24 hrs by disc diffusion method; assay type: functional
[9] = tested on: Staphylococcus epidermidis; experiment: Antibacterial activity against Staphylococcus epidermidis MTCC 3615 assessed as inhibition of visual growth after 24 hrs; assay type: functional; conditions: MTCC 3615, 24 h
Malassezia pachydermatis [10] = experiment: Antifungal activity against Malassezia pachydermatis assessed as inhibition of visual growth after 48 to 72 hrs; assay type: functional
[11] = tested on: Staphylococcus epidermidis; experiment: Antibacterial activity against Staphylococcus epidermidis MTCC 3615 assessed as zone of inhibition at 1 mg/disc after 24 hrs by disc diffusion method; assay type: functional
Candida albicans [12] = experiment: Antifungal activity against Candida albicans MTCC 227 assessed as inhibition of visual growth after 48 to 72 hrs; assay type: functional
Micrococcus luteus [13] = experiment: Antibacterial activity against Micrococcus luteus MTCC 106 assessed as inhibition of visual growth after 24 hrs; assay type: functional; conditions: MTCC 106, 24 h
Candida albicans [14] = experiment: Antifungal activity against Candida albicans MTCC 227 assessed as zone of inhibition at 1 mg/disc after 48 hrs by disc diffusion method; assay type: functional
Staphylococcus aureus [15] = experiment: Antibacterial activity against Staphylococcus aureus MTCC 96 assessed as inhibition of visual growth after 24 hrs; assay type: functional; conditions: MTCC 96, 24 h
Staphylococcus aureus [16] = experiment: Antibacterial activity against methicillin-resistant Staphylococcus aureus assessed as inhibition of visual growth after 24 hrs; assay type: functional
Staphylococcus aureus [17] = experiment: Antibacterial activity against Staphylococcus aureus MTCC 96 assessed as zone of inhibition at 1 mg/disc after 24 hrs by disc diffusion method; assay type: functional
Staphylococcus aureus [18] = experiment: Antibacterial activity against methicillin-resistant Staphylococcus aureus assessed as zone of inhibition at 1 mg/disc after 24 hrs by disc diffusion method; assay type: functional
Salmonella typhimurium = experiment: Antibacterial activity against Salmonella typhimurium MTCC 1251 assessed as zone of inhibition at 1 mg/disc after 24 hrs by disc diffusion method; assay type: functional, Salmonella enterica subsp. enterica serovar Typhimurium

MIC (Klebsiella pneumoniae [1]): 500 µg/mL (≈ 830 µM)
MIC (Proteus vulgaris [5]): 250 µg/mL (≈ 415 µM)
MIC (Klebsiella aerogenes [7]): 500 µg/mL (≈ 830 µM)
MIC [9]: 500 µg/mL (≈ 830 µM)
MIC (Malassezia pachydermatis [10]): 500 µg/mL (≈ 830 µM)
MIC (Candida albicans [12]): 250 µg/mL (≈ 415 µM)
MIC (Micrococcus luteus [13]): 500 µg/mL (≈ 830 µM)
SMILES: CN1C(=O)[C@]2(c3ccccc31)[C@H](c1cn(-c3ccccc3)nc1-c1ccccc1)[C@@](C#N)(C(=O)c1c[nH]c3ccccc13)CN2C
inhibition zone (IZ) (Klebsiella pneumoniae [2]): 8 mm
inhibition zone (IZ) (Proteus vulgaris [3]): 10 mm
inhibition zone (IZ) (Malassezia pachydermatis [4]): 10 mm
inhibition zone (IZ) (Micrococcus luteus [6]): 10 mm
inhibition zone (IZ) (Klebsiella aerogenes [8]): 8 mm
inhibition zone (IZ) [11]: 8 mm
inhibition zone (IZ) (Candida albicans [14]): 11 mm

SMILES: C=CCN1C(=O)[C@]2(c3ccccc31)[C@H](c1cn(-c3ccccc3)nc1-c1ccccc1)[C@@](C#N)(C(=O)c1c[nH]c3ccccc13)CN2C
MIC (Klebsiella pneumoniae [1]): 125 µg/mL (≈ 199 µM)
MIC (Staphylococcus aureus [15]): 250 µg/mL (≈ 398 µM)
inhibition zone (IZ) (Klebsiella pneumoniae [2]): 10 mm
inhibition zone (IZ) (Proteus vulgaris [3]): 8 mm
MIC (Staphylococcus aureus [16]): 500 µg/mL (≈ 795 µM)
inhibition zone (IZ) (Malassezia pachydermatis [4]): 11 mm
MIC (Proteus vulgaris [5]): 500 µg/mL (≈ 795 µM)
inhibition zone (IZ) (Micrococcus luteus [6]): 12 mm
MIC (Klebsiella aerogenes [7]): 250 µg/mL (≈ 398 µM)
inhibition zone (IZ) (Klebsiella aerogenes [8]): 11 mm
MIC [9]: 250 µg/mL (≈ 398 µM)
inhibition zone (IZ) (Staphylococcus aureus [17]): 11 mm
MIC (Malassezia pachydermatis [10]): 250 µg/mL (≈ 398 µM)
inhibition zone (IZ) [11]: 10 mm
MIC (Micrococcus luteus [13]): 250 µg/mL (≈ 398 µM)
inhibition zone (IZ) (Staphylococcus aureus [18]): 8 mm

SMILES: CN1C[C@](C#N)(C(=O)c2c[nH]c3ccccc23)[C@@H](c2cn(-c3ccccc3)nc2-c2ccccc2)[C@@]12C(=O)Nc1ccc(Cl)cc12
inhibition zone (IZ) (Klebsiella pneumoniae [2]): 9 mm
inhibition zone (IZ) (Proteus vulgaris [3]): 11 mm
inhibition zone (IZ) (Malassezia pachydermatis [4]): 9 mm
inhibition zone (IZ) (Micrococcus luteus [6]): 10 mm
inhibition zone (IZ) (Klebsiella aerogenes [8]): 9 mm
inhibition zone (IZ) (Staphylococcus aureus [17]): 11 mm
inhibition zone (IZ) [11]: 8 mm
inhibition zone (IZ) (Salmonella typhimurium): 8 mm
inhibition zone (IZ) (Candida albicans [14]): 11 mm
inhibition zone (IZ) (Staphylococcus aureus [18]): 12 mm

SMILES: N#C[C@]1(C(=O)c2c[nH]c3ccccc23)C2CCCN2[C@]2(C(=O)N(Cc3ccccc3)c3ccccc32)[C@@H]1c1cn(-c2ccccc2)nc1-c1ccccc1 (stereo not given in full)
inhibition zone (IZ) (Klebsiella pneumoniae [2]): 11 mm
inhibition zone (IZ) (Proteus vulgaris [3]): 10 mm
inhibition zone (IZ) (Micrococcus luteus [6]): 9 mm
inhibition zone (IZ) (Klebsiella aerogenes [8]): 8 mm
inhibition zone (IZ) (Staphylococcus aureus [17]): 13 mm
inhibition zone (IZ) [11]: 15 mm
inhibition zone (IZ) (Salmonella typhimurium): 14 mm
inhibition zone (IZ) (Candida albicans [14]): 8 mm
inhibition zone (IZ) (Staphylococcus aureus [18]): 8 mm

SMILES: N#C[C@]1(C(=O)c2c[nH]c3ccccc23)C2CSCN2[C@]2(C(=O)Nc3ccc([N+](=O)[O-])cc32)[C@@H]1c1cn(-c2ccccc2)nc1-c1ccccc1 (stereo not given in full)
inhibition zone (IZ) (Proteus vulgaris [3]): 8 mm

MIC (Klebsiella pneumoniae [1]): 500 µg/mL (≈ 775 µM)
MIC (Proteus vulgaris [5]): 500 µg/mL (≈ 775 µM)
MIC (Klebsiella aerogenes [7]): 125 µg/mL (≈ 194 µM)
MIC [9]: 500 µg/mL (≈ 775 µM)
MIC (Malassezia pachydermatis [10]): 250 µg/mL (≈ 388 µM)
MIC (Candida albicans [12]): 500 µg/mL (≈ 775 µM)
MIC (Micrococcus luteus [13]): 250 µg/mL (≈ 388 µM)
SMILES: CCCCN1C(=O)[C@]2(c3ccccc31)[C@H](c1cn(-c3ccccc3)nc1-c1ccccc1)[C@@](C#N)(C(=O)c1c[nH]c3ccccc13)CN2C
inhibition zone (IZ) (Klebsiella pneumoniae [2]): 9 mm
inhibition zone (IZ) (Proteus vulgaris [3]): 8 mm
inhibition zone (IZ) (Malassezia pachydermatis [4]): 11 mm
inhibition zone (IZ) (Micrococcus luteus [6]): 11 mm
inhibition zone (IZ) (Klebsiella aerogenes [8]): 13 mm
inhibition zone (IZ) [11]: 9 mm
inhibition zone (IZ) (Candida albicans [14]): 9 mm

SMILES: CN1C[C@](C#N)(C(=O)c2c[nH]c3ccccc23)[C@@H](c2cn(-c3ccccc3)nc2-c2ccccc2)[C@@]12C(=O)Nc1ccccc12
MIC (Klebsiella pneumoniae [1]): 500 µg/mL (≈ 849 µM)
MIC (Staphylococcus aureus [15]): 500 µg/mL (≈ 849 µM)
inhibition zone (IZ) (Klebsiella pneumoniae [2]): 9 mm
inhibition zone (IZ) (Proteus vulgaris [3]): 8 mm
MIC (Staphylococcus aureus [16]): 500 µg/mL (≈ 849 µM)
inhibition zone (IZ) (Malassezia pachydermatis [4]): 9 mm
MIC (Proteus vulgaris [5]): 500 µg/mL (≈ 849 µM)
inhibition zone (IZ) (Micrococcus luteus [6]): 10 mm
MIC (Klebsiella aerogenes [7]): 500 µg/mL (≈ 849 µM)
inhibition zone (IZ) (Klebsiella aerogenes [8]): 9 mm
MIC [9]: 500 µg/mL (≈ 849 µM)
inhibition zone (IZ) (Staphylococcus aureus [17]): 9 mm
MIC (Malassezia pachydermatis [10]): 500 µg/mL (≈ 849 µM)
inhibition zone (IZ) [11]: 8 mm
MIC (Micrococcus luteus [13]): 250 µg/mL (≈ 425 µM)
inhibition zone (IZ) (Staphylococcus aureus [18]): 8 mm
